Values of other authors as cited in patent US20080081070A1, “PHARMACEUTICAL FORMULATION WITH ENHANCED SOLUBILITY FOR THE DELIVERY OF CORTICOSTEROIDS” (priority 2006, published 2008).
Converted amounts (≈) assume the structure as drawn. Blank lines part the entries; values can stand above or below the compound they belong to.

Key:
[1] = animal studies
[2] = not given; remark: listed apart in the source
[3] = tested on: mild and moderately active Crohn's disease
[4] = oral dosing of radiolabeled drug, humans

Compound: CCC(=O)O[C@]1(C(=O)O)[C@H](C)C[C@H]2[C@@H]3C[C@H](F)C4=CC(=O)C=C[C@]4(C)[C@@]3(F)[C@@H](O)C[C@@]21C [17-β-carboxylic acid]
pharmacologic activity [1]: negligible

Compound: CCC(=O)O[C@]1(C(=O)SCF)[C@H](C)C[C@H]2[C@@H]3C[C@H](F)C4=CC(=O)C=C[C@]4(C)[C@@]3(F)[C@@H](O)C[C@@]21C [Fluticasone propionate, S-fluoromethyl-6-α-9-difluoro-11-β-hydroxy-16-α-methyl-3-oxoandrosta-1,4-diene-17-β-carbothioate, 17-propionate]
solubility in 95% ethanol (95% ethanol): slightly soluble
solubility in dimethyl sulfoxide (dimethyl sulfoxide): freely soluble
solubility in dimethyl-formamide (dimethyl-formamide): freely soluble
solubility in methanol (methanol): slightly soluble
solubility in water (water): 0.14 µg/mL (≈ 0.28 µM)
total blood clearance ([2]; average, predominantly through the liver): 1,093 mL/min
absorption [2, 4]: low
extraction from plasma [2, 4]: highly extracted
oral bioavailability [2, 4]: negligible
excretion of injected radioactivity calculated from whole body data ([3]; after three weeks oral treatment, before treatment 28 (21%), p less than 0.05): 1.4 (0.7%)
plasma cortisol values ([3]; three weeks oral treatment): no changes
leucocyte scan images ([3]; three weeks oral treatment, twelve patients): improved (seven patients) or unchanged (five patients)

clinical features of hypercortisolism compared with prednisone (Crohn's disease; clinical studies): fewer
likelihood of maintaining a normal plasma cortisol level compared with prednisone (Crohn's disease; clinical studies): greater likelihood
bone mineral density compared with prednisone (Crohn's disease; two-year study): decreased less
Compound: CCCC1O[C@@H]2C[C@H]3[C@@H]4CCC5=CC(=O)C=C[C@]5(C)[C@H]4[C@@H](O)C[C@]3(C)[C@]2(C(=O)CO)O1 (stereo partly shown) [budesonide]
